From the Bradley open melting point set (2014) come the findings set out here.

Usually melting point stands for the temperature of the solid-liquid transition.

Each structure is given as a SMILES string.

`NC1CCc2ccccc21` (stereo not drawn) [1-aminoindane] yielded a melting point of 2 °C. As for `Cc1cccc(C(C)(C)C)c1` [3-tert-butyltoluene], the melting point was -41 °C. Regarding `CCCNC(=O)NS(=O)(=O)c1ccc(Cl)cc1` [chlorpropamide], the melting point stood at 128 °C. For `Nc1ncnc2c1ncn2[C@@H]1O[C@H](CO)[C@@H](O)[C@H]1O` [Adenosine] the value was 234 °C. For `C1=CC2=CC=C3C=CC=CC4=C3CC2=C(C=C1)C=C4` [6H-5,7-ethenocyclohepta[b]heptalene] the value was 130 °C; for `O=C(O)Cc1ccccc1-c1ccccc1` [o-phenyl_phenylacetic_acid], 116 °C. Take `Cc1ccc(C)c(-c2ccc([N+](=O)[O-])cc2)c1` [2,5-Dimethyl-4'-nitrobiphenyl]: the melting point is 98.3 °C. As for `O=c1ccn([C@@H]2C[C@H](O)[C@@H](CO)O2)c(=O)[nH]1` [2'-Deoxyuridine], the melting point was 163 °C. `O=C(O)c1ccccc1[N+](=O)[O-]` [2-Nitrobenzoic acid] yielded a melting point of 147 °C. For `OCC#CCO` [But-2-yne-1,4-diol] the value was 57 °C. `O=[N+]([O-])c1ccc(F)cc1` [1-fluoro-4-nitrobenzene] showed a melting point of 23 °C.

`COc1ccc(C#N)cc1` [4-methoxybenzonitrile] came in with a melting point of 59 °C. Regarding `O=C1CCC(N2C(=O)c3ccccc3C2=O)C(=O)N1` (stereo not drawn) [2-(2,6-Dioxopiperidin-3-yl)-1H-isoindole-1,3(2H)-dione], the melting point came to 270 °C. On to `C/C=C/C=O` [(2E)-But-2-enal], for which the melting point is -76 °C.

`N#Cc1cncnc1N` [4-aminopyrimidine-5-carbonitrile] had a melting point of 255 °C. For `Cc1ccc(CNC2=CC(=O)c3ccccc3C2=O)nc1` [2-{[(5-methylpyridin-2-yl)methyl]amino}naphthalene-1,4-dione], the melting point worked out at 135 °C. In turn, `Cc1cc(Cl)c(C)cc1Cl` [2,5-dichloro-p-xylene] gave a melting point of 69 °C.

Consider `COc1ccc(Cl)c(Cl)c1Cl` [1-Methoxy-2,3,4-trichlorobenzene], for which the melting point is 70 °C. As to `C=CC(N)=O` [acrylamide], the melting point is 84 °C. Turning to `Nc1ccc(Cl)c([N+](=O)[O-])c1` [4-chloro-3-nitroaniline], the melting point is 103 °C. The compound `Cc1ncc(COP(=O)(O)O)c(C=O)c1O` [Pyridoxal Phosphate] gave a melting point of 205 °C. For `CCC(C)S` (stereo not drawn) [2-butanethiol] the value was -140 °C; for `COC(=O)c1ccc(C(=O)O)cc1` [mono-methyl_terephthalate], 221 °C.

Regarding `Oc1ccccc1I` [2-iodophenol], the melting point is 40 °C.

As for `O=C1c2ccccc2-c2ccccc21` [9H-Fluoren-9-one], the melting point was 83 °C. For `Oc1cccc(I)c1` [3-iodophenol] the value was 41 °C; for `O=C(O)COc1ccc(Cl)cc1Cl` [(2,4-Dichlorophenoxy)acetic acid], 138 °C.

`C(=Cc1ccccc1)Cc1ccccc1` [benzene, 1,1'-(1-propene-1,3-diyl)bis-]: the melting point amounted to 155 °C. For `NC(=O)c1ccccc1[N+](=O)[O-]` [2-nitrobenzamide], the melting point stood at 176 °C. `O=C(/C=C/c1ccc(-c2ccc(Br)cc2)o1)c1ccco1` returned a melting point of 165 °C. As for `CCCOC(=O)c1ccc(O)cc1` [propyl p-hydroxybenzoate], the melting point stood at 96 °C. Turning to `CC(CCC(=O)O)C1CCC2C3C(O)CC4CC(O)CCC4(C)C3CCC12C` (stereo not drawn) [ursodiol], the melting point came to 203 °C. `O=[N+]([O-])c1ccc(OCC(O)CO)cc1` (stereo not drawn) [1-(4-nitrophenyl)glycerol] showed a melting point of 96 °C.

Consider `CN1CCC(N(Cc2ccccc2)c2ccccc2)CC1` [bamipine], for which the melting point was 114 °C. For `CCC1(c2ccccc2)C(=O)NC(=O)NC1=O` [Phenobarbital] the value was 176 °C; for `Fc1cc(OCc2ccccc2)ccc1Br` [4-benzyloxy-1-bromo-2-fluorobenzene], 34 °C.

As to `NC(=O)Oc1ccccc1` [phenyl carbamate], the melting point was 151 °C. Regarding `O=C=NCCCCCCN=C=O` [1,6-Diisocyanatohexane], the melting point was -55 °C. For `Cc1cc(C)cc(-c2cc(C)cc(C)c2)c1` [3,3',5,5'-tetramethylbiphenyl] the value was 48 °C; for `COC(=O)C1(C)C(C)=Nc2ccccc21` (stereo not drawn) [methyl 2,3-dimethyl-3H-indole-3-carboxylate], 81 °C.

In turn, `Cc1cc(C=O)c(C)n1-c1cc(C(F)(F)F)cc(C(F)(F)F)c1` [OSM-S-36] registered a melting point of 95.5 °C.

Compound `O=C(O)c1cccc2c1nnn2Cc1ccccc1` [1-Benzyl-1H-benzotriazole-4-carboxylic acid] gave a melting point of 221 °C.

In turn, `COc1ccc(C(=O)/C=C/c2ccc(-c3ccccc3[N+](=O)[O-])o2)cc1OC` yielded a melting point of 120 °C.

Take `Cc1ncccc1O` [3-hydroxy-2-methylpyridine]: the melting point was found to be 168 °C. With `CN(C)C=O` [Dimethylformamide], the melting point is -60.4 °C. As for `OB(O)c1cccc(O)c1` [3-hydroxybenzeneboronic acid], the melting point was found to be 209 °C. In turn, `CC(=O)c1cccc(O)c1` [3'-hydroxyacetophenone] gave a melting point of 95 °C. Turning to `C=CC1(C(C)CCC)C(=O)NC(=O)NC1=O` (stereo not drawn) [vinylbital], the melting point was found to be 90 °C.

For the compound `CS(=O)(=O)c1ccccc1` [methyl phenyl sulfone], the melting point came out at 87 °C.

`OB(O)c1cccc(Oc2ccccc2)c1` [3-phenoxybenzeneboronic acid] had a melting point of 141 °C. Compound `C1=CCCCCCCCCCC1` [cyclododecene_(trans)] showed a melting point of 0 °C. In turn, `Cc1ccnc(NS(=O)(=O)c2ccc(N)cc2)n1` [sulfamerazine] showed a melting point of 234 °C.

`CCCC1(O)CCC2C3CCC4CC(OC(C)=O)CCC4(C)C3CCC21C` (stereo not drawn) displayed a melting point of 121 °C. Consider `NS(=O)(=O)c1cc2c(cc1C(F)(F)F)NCNS2(=O)=O` [hydroflumethiazide], for which the melting point turned out to be 272 °C. The compound `OB(O)c1ccc(-c2ccccc2)cc1` [biphenyl-4-boronic acid] came in with a melting point of 243 °C.

Compound `CN(C)CCC(O)(c1ccccc1)c1ccccc1Cl` (stereo not drawn) [chlophedianol] came in with a melting point of 120 °C. As for `O=C(O)c1ccccc1-c1c2cc(Br)c(=O)c(Br)c-2oc2c(Br)c(O)c(Br)cc12`, the melting point is 300 °C. In turn, `CC1(C)[C@@H](C(=O)O)CC[C@@]1(C)C(=O)O` [(1R,3S)-camphoric acid] had a melting point of 186 °C. Consider `CC1(C)[C@H]2CC[C@]1(CS(=O)(=O)Cl)C(=O)C2` [(1R)-camphor-10-sulfonyl chloride], for which the melting point worked out at 66 °C. Compound `OCc1ccc(F)c(B(O)O)c1` [2-fluoro-5-(hydroxymethyl)benzeneboronic acid] registered a melting point of 71 °C. `CCCCCCCC(C)=O` [2-nonanone] showed a melting point of -8 °C. With `CC(C)CC1=C/C(=C/c2ccc(-c3ccc(Br)cc3)o2)C(=O)O1`, the melting point was found to be 108 °C. For the compound `CCOC(=O)c1c(SC)n[nH]c1N`, the melting point came to 143 °C.

Compound `COCCOCCOC` [2-methoxyethyl_ether] gave a melting point of -64 °C. In the case of `O=C(Cl)N(c1ccccc1)c1ccccc1` [diphenylcarbamyl chloride], the melting point came to 84 °C. For `O=C(O)c1ccccc1[N+](=O)[O-]` [o-nitrobenzoic_acid] the value was 148 °C.

The compound `COC(=O)c1ccc(C(=O)OC)cc1` [Dimethyl terephthalate] came in with a melting point of 141 °C. As for `c1cc2ccc3cccc4ccc(c1)c2c34` [Pyrene], the melting point was 151 °C. In turn, `COC(=O)CCC(C)C1CCC2C3CCC4CC(=O)CCC4(C)C3CCC12C` (stereo not drawn) [methyl 3-oxocholan-24-oate] came in with a melting point of 117 °C.

For `CCC1(OC(C)=O)CCC2(C)C(CCC3C4CCC(=O)C4(C)CCC32)C1` (stereo not drawn) [3-ethyl-17-oxoandrostan-3-yl acetate], the melting point turned out to be 126 °C.

As for `CN(C)CC(=O)N1c2ccccc2Sc2ccccc21` [ahistan], the melting point came out at 144 °C.

Turning to `COC(=O)c1ccc2c(c1)CC1(CCC(c3ccc(C(C)(C)C)cc3)CC1)C2` (stereo not drawn), the melting point came to 117 °C. For `NC(=O)c1cccnc1` [nicotinamide] the value was 130 °C.

On to `CCOC(=O)c1cc(O)c(O)c(O)c1` [ethyl 3,4,5-trihydroxybenzoate], for which the melting point is 150 °C. As for `N#Cc1ccc[n+]([O-])c1` [3-cyanopyridine 1-oxide], the melting point was 177 °C. `ClCCCCCCl` [1,5-dichloropentane] showed a melting point of -72 °C. On to `Cc1ccccc1C#N` [o-tolunitrile], for which the melting point came out at 13 °C. For `O=[N+]([O-])c1cccc2cccc(/C=N/c3ccccc3)c12` [N-[(1E)-(8-nitronaphthalen-1-yl)methylidene]aniline], the melting point amounted to 115 °C. `Cc1[nH]cnc1C=O` [5-methylimidazole-4-carboxaldehyde] registered a melting point of 168 °C.

For `CCCCOC(=O)c1ccc(N)cc1` [butyl 4-aminobenzoate], the melting point is 58 °C. The compound `N=C(N)N` [Guanidine] had a melting point of 50 °C. Take `C[C@]12C=CC(=O)C=C1CC[C@H]1[C@@H]3C[C@@H](O)[C@](O)(C(=O)CO)[C@@]3(C)C[C@H](O)[C@@]12F` [Triamcinolone]: the melting point stood at 276 °C.

Compound `COc1ccc(OC)c(S(N)(=O)=O)c1` [2,5-dimethoxybenzenesulfonamide] had a melting point of 147 °C.

For `OCC(c1ccccc1)c1ccccc1` [2,2-Diphenylethanol], the melting point stood at 54.5 °C. With `COC(=O)c1cccc(C(=O)OC)n1` [dimethyl pyridine-2,6-dicarboxylate], the melting point amounted to 121 °C. For the compound `Cc1ccc(C(=O)c2ccccc2)cc1` [4-Methylbenzophenone], the melting point is 50 °C. For `Cc1c(C)n(C#N)c2ccccc12` [2,3-dimethyl-1H-indole-1-carbonitrile] the value was 97 °C; for `FC(F)(F)c1ccc2cccnc2c1` [7-(trifluoromethyl)quinoline], 66 °C.
